From PubChem BioAssay (NCI)
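Results reflect a 48-hour exposure of cells in 96-well plates to compound at five concentrations. Abbreviation: GI50, concentration required for 50% inhibition of growth. TGI is the concentration that stops growth completely.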

Experiments:
Experiment in all cases: DTP human tumour cell line panel, 48 h
HT29 colon = test system: HT29 colon
MALME-3M melanoma = test system: MALME-3M melanoma
A498 renal = test system: A498 renal
SF-539 CNS = test system: SF-539 CNS
SR leukemia = test system: SR leukemia
HS 578T breast = test system: HS 578T breast
NCI/ADR-RES ovarian = test system: NCI/ADR-RES ovarian
HL-60(TB) leukemia = test system: HL-60(TB) leukemia
SF-295 CNS = test system: SF-295 CNS
UACC-257 melanoma = test system: UACC-257 melanoma
SK-OV-3 ovarian = test system: SK-OV-3 ovarian
OVCAR-4 ovarian = test system: OVCAR-4 ovarian
OVCAR-3 ovarian = test system: OVCAR-3 ovarian
NCI-H23 lung = test system: NCI-H23 lung
786-0 renal = test system: 786-0 renal
IGROV1 ovarian = test system: IGROV1 ovarian
DU-145 prostate = test system: DU-145 prostate
KM12 colon = test system: KM12 colon
HOP-92 NSCLC = test system: HOP-92 NSCLC
HOP-62 NSCLC = test system: HOP-62 NSCLC
MCF7 breast = test system: MCF7 breast
T-47D breast = test system: T-47D breast
SK-MEL-2 melanoma = test system: SK-MEL-2 melanoma
NCI-H226 lung = test system: NCI-H226 lung
SK-MEL-28 melanoma = test system: SK-MEL-28 melanoma
MDA-MB-435 = test system: MDA-MB-435
COLO 205 colon = test system: COLO 205 colon
HCT-15 colon = test system: HCT-15 colon
SF-268 CNS = test system: SF-268 CNS
K-562 leukemia = test system: K-562 leukemia
ACHN renal = test system: ACHN renal
U251 CNS = test system: U251 CNS
MOLT-4 leukemia = test system: MOLT-4 leukemia
PC-3 prostate = test system: PC-3 prostate
CAKI-1 renal = test system: CAKI-1 renal
LOX IMVI melanoma = test system: LOX IMVI melanoma
BT-549 breast = test system: BT-549 breast
SW-620 colon = test system: SW-620 colon
HCC-2998 colon = test system: HCC-2998 colon
OVCAR-8 ovarian = test system: OVCAR-8 ovarian
UACC-62 melanoma = test system: UACC-62 melanoma
SK-MEL-5 melanoma = test system: SK-MEL-5 melanoma
NCI-H522 lung = test system: NCI-H522 lung
MDA-MB-231 breast = test system: MDA-MB-231 breast
TK-10 renal = test system: TK-10 renal
UO-31 renal = test system: UO-31 renal
SNB-19 CNS = test system: SNB-19 CNS
RXF 393 renal = test system: RXF 393 renal
RPMI-8226 leukemia = test system: RPMI-8226 leukemia
EKVX NSCLC = test system: EKVX NSCLC
A549 NSCLC = test system: A549 NSCLC
NCI-H460 lung = test system: NCI-H460 lung
CCRF-CEM leukemia = test system: CCRF-CEM leukemia
HCT-116 colon = test system: HCT-116 colon
OVCAR-5 ovarian = test system: OVCAR-5 ovarian
SNB-75 CNS = test system: SNB-75 CNS
SN12C renal = test system: SN12C renal
M14 melanoma = test system: M14 melanoma

O=C(Nc1cccc(-c2nc(-c3ccc(NC(=O)c4cccnc4)cc3Cl)no2)c1)Nc1ccc(NC(=O)C2CC2)c(C(F)(F)F)c1
GI50 (HT29 colon): 336 nM
TGI (HT29 colon): 1430 nM
GI50 (MALME-3M melanoma): 240 nM
TGI (MALME-3M melanoma): 808 nM
GI50 (A498 renal): 161 nM
TGI (A498 renal): 1890 nM
GI50 (SF-539 CNS): 226 nM
TGI (SF-539 CNS): 655 nM
GI50 (SR leukemia): 96.3 nM
TGI (SR leukemia): 962 nM
GI50 (HS 578T breast): 324 nM
TGI (HS 578T breast): 1290 nM
GI50 (NCI/ADR-RES ovarian): 22200 nM
TGI (NCI/ADR-RES ovarian): > 100000 nM
GI50 (HL-60(TB) leukemia): 259 nM
TGI (HL-60(TB) leukemia): 997 nM
GI50 (SF-295 CNS): 271 nM
TGI (SF-295 CNS): 752 nM
GI50 (UACC-257 melanoma): 1330 nM
TGI (UACC-257 melanoma): 3490 nM
GI50 (SK-OV-3 ovarian): 1760 nM
TGI (SK-OV-3 ovarian): 3890 nM
GI50 (OVCAR-4 ovarian): 565 nM
TGI (OVCAR-4 ovarian): 1830 nM
GI50 (OVCAR-3 ovarian): 315 nM
TGI (OVCAR-3 ovarian): 1100 nM
GI50 (NCI-H23 lung): 411 nM
TGI (NCI-H23 lung): 1570 nM
GI50 (786-0 renal): 994 nM
TGI (786-0 renal): 3110 nM
GI50 (IGROV1 ovarian): 258 nM
TGI (IGROV1 ovarian): 830 nM
GI50 (DU-145 prostate): 435 nM
TGI (DU-145 prostate): 4210 nM
GI50 (KM12 colon): 376 nM
TGI (KM12 colon): 1750 nM
GI50 (HOP-92 NSCLC): 522 nM
TGI (HOP-92 NSCLC): 1330 nM
GI50 (HOP-62 NSCLC): 361 nM
TGI (HOP-62 NSCLC): 1800 nM
GI50 (MCF7 breast): 228 nM
TGI (MCF7 breast): 1220 nM
GI50 (T-47D breast): 535 nM
TGI (T-47D breast): 2400 nM
GI50 (SK-MEL-2 melanoma): 1140 nM
TGI (SK-MEL-2 melanoma): 2980 nM
GI50 (NCI-H226 lung): 562 nM
TGI (NCI-H226 lung): 1960 nM
GI50 (SK-MEL-28 melanoma): 559 nM
TGI (SK-MEL-28 melanoma): 1710 nM
GI50 (MDA-MB-435): 126 nM
TGI (MDA-MB-435): 381 nM
GI50 (COLO 205 colon): 380 nM
TGI (COLO 205 colon): 1610 nM
GI50 (HCT-15 colon): 784 nM
TGI (HCT-15 colon): 5620 nM
GI50 (SF-268 CNS): 1070 nM
TGI (SF-268 CNS): 4830 nM
GI50 (K-562 leukemia): 156 nM
TGI (K-562 leukemia): 10700 nM
GI50 (ACHN renal): 2070 nM
TGI (ACHN renal): 13200 nM
GI50 (U251 CNS): 290 nM
TGI (U251 CNS): 1020 nM
GI50 (MOLT-4 leukemia): 288 nM
TGI (MOLT-4 leukemia): 1020 nM
GI50 (PC-3 prostate): 226 nM
TGI (PC-3 prostate): 790 nM
GI50 (CAKI-1 renal): 437 nM
TGI (CAKI-1 renal): 1800 nM
GI50 (LOX IMVI melanoma): 174 nM
TGI (LOX IMVI melanoma): 388 nM
GI50 (BT-549 breast): 1070 nM
TGI (BT-549 breast): 3020 nM
GI50 (SW-620 colon): 345 nM
TGI (SW-620 colon): 1510 nM
GI50 (HCC-2998 colon): 689 nM
TGI (HCC-2998 colon): 2060 nM
GI50 (OVCAR-8 ovarian): 449 nM
TGI (OVCAR-8 ovarian): 3100 nM
GI50 (UACC-62 melanoma): 317 nM
TGI (UACC-62 melanoma): 1570 nM
GI50 (SK-MEL-5 melanoma): 381 nM
TGI (SK-MEL-5 melanoma): 1400 nM
GI50 (NCI-H522 lung): 349 nM
TGI (NCI-H522 lung): 1760 nM
GI50 (MDA-MB-231 breast): 323 nM
TGI (MDA-MB-231 breast): 1260 nM
GI50 (TK-10 renal): 1920 nM
TGI (TK-10 renal): 5460 nM
GI50 (UO-31 renal): 1610 nM
TGI (UO-31 renal): 5450 nM
GI50 (SNB-19 CNS): 381 nM
TGI (SNB-19 CNS): 1900 nM
GI50 (RXF 393 renal): 247 nM
TGI (RXF 393 renal): 741 nM
GI50 (RPMI-8226 leukemia): 303 nM
TGI (RPMI-8226 leukemia): 1100 nM
GI50 (EKVX NSCLC): 997 nM
TGI (EKVX NSCLC): 5110 nM
GI50 (A549 NSCLC): 429 nM
TGI (A549 NSCLC): 4760 nM
GI50 (NCI-H460 lung): 343 nM
TGI (NCI-H460 lung): 1130 nM
GI50 (CCRF-CEM leukemia): 270 nM
TGI (CCRF-CEM leukemia): 1900 nM
GI50 (HCT-116 colon): 303 nM
TGI (HCT-116 colon): 1280 nM
GI50 (OVCAR-5 ovarian): 446 nM
TGI (OVCAR-5 ovarian): 1710 nM
GI50 (SNB-75 CNS): 224 nM
TGI (SNB-75 CNS): 806 nM
GI50 (SN12C renal): 415 nM
TGI (SN12C renal): 1660 nM
GI50 (M14 melanoma): 307 nM
TGI (M14 melanoma): 1280 nM
